Data as given in US9198426B2, “Use of 5 pyridin-4-yl-1,3-thiazoles for controlling phytopathogenic fungi” (Bayer Intellectual Property GmbH, priority 2008, dated 2015).
Marks after values point to notes of the source that are not given here.

Legend:
physchem = format: physicochemical
Fusarium proliferatum = test: Production of fumonisin FB1 by Fusarium proliferatum (microtitre plates); format: cell-based; conditions: 120 h, 5 days, 20° C., HPLC-MS/MS
Fusarium graminearum = test: microbe, parasite or virus in culture; format: cell-based; conditions: 168 h, read-out: activity in the inhibition of DON/AcDON production

Row | SMILES | log p (physchem; pH 2.7) | log p (physchem; pH 7.8) | other results
1 | O=C(c1ccc(Cl)s1)C(Br)c1ccncc1 (centres unmarked) [2-Bromo-1-(5-chloro-2-thienyl)-2-(pyridin-4-yl)ethanone] | – | – | chromatographic logP (physchem; pH 2.7): 2.18
2 | CCc1nc(-c2ccc(F)cc2)c(-c2ccnc(N)c2)s1 [Ex. 35, 4-[2-Ethyl-4-(4-fluorophenyl)-1,3-thiazol-5-yl]pyridine-2-amine] | – | – | chromatographic logP (physchem; pH 2.7): 1.29
3 | CCc1nc(-c2ccc(F)cc2)c(-c2ccncc2)s1 [Ex. 41, 4-[2-Ethyl-4-(4-fluorophenyl)-1,3-thiazol-5-yl]pyridine] | – | – | inhibition at 50 µM (Fusarium proliferatum): > 70%; inhibition at 50 µM (Fusarium graminearum): > 70%; chromatographic logP (physchem; pH 2.3): 2.01; chromatographic logP (physchem; pH 7.8): 2.89
4 | CCc1nc(-c2ccc(F)cc2)c(-c2ccnc(Cl)c2)s1 [Ex. 58, 2-Chloro-4-[2-ethyl-4-(4-fluorophenyl)-1,3-thiazol-5-yl]pyridine] | – | – | chromatographic logP (physchem; pH 2.7): 4.07; chromatographic logP (physchem; pH 7.8): 4.1
5 | CCc1nc(-c2ccc(F)cc2)c(-c2ccnc(NCc3ccccc3)c2)s1 [Ex. 59, N-Benzyl-4-[2-ethyl-4-(4-fluorophenyl)-1,3-thiazol-5-yl]pyridine-2-amine] | – | – | chromatographic logP (physchem; pH 2.7): 2.32
6 | CCc1nc(-c2ccc(F)cc2)c(-c2ccnc(NC3CC3)c2)s1 [Ex. 72, N-Cyclopropyl-4-[2-ethyl-4-(4-fluorophenyl)-1,3-thiazol-5-yl]pyridine-2-amine] | – | – | chromatographic logP (physchem; pH 2.7): 1.74; chromatographic logP (physchem; pH 7.8): 3.61
7 | CCc1nc(-c2ccc(F)cc2)c(-c2ccnc(C(=O)NC3CC3)c2)s1 [Ex. 75, N-Cyclopropyl-4-[2-ethyl-4-(4-fluorophenyl)-1,3-thiazol-5-yl]pryridine-2-carboxamide] | 3.46^[b] | 3.5^[c]; | –
8 | CCc1nc(-c2ccc(F)cc2)c(-c2ccnc(N(C(C)=O)C3CC3)c2)s1 [Ex. 80, N-Cyclopropyl-N-{4-[2-ethyl-4-(4-fluorophenyl)-1,3-thiazol-5-yl]pyridin-2-yl}acetamide] | – | – | chromatographic logP (physchem; pH 2.7): 2.81; chromatographic logP (physchem; pH 7.8): 2.88
9 | CCCC(=O)Nc1cc(-c2sc(CC)nc2-c2ccc(F)cc2)ccn1 [Ex. 83, N-{4-[2-Ethyl-4-(4-fluorophenyl)-1,3-thiazol-5-yl]pyridin-2-}butanamide] | 3.45^[b] | 3.58^[c]; | –
10 | CCc1nc(-c2ccc(F)cc2)c(-c2ccnc(C)c2)s1 [Ex. 96, 4-[2-Ethyl-4-(4-fluorophenyl)-1,3-thiazol-5-yl]-2-methylpyridine] | – | – | chromatographic logP (physchem; pH 2.7): 1.68
11 | Cc1cc(-c2sc(C(C)C)nc2-c2ccc(F)cc2)ccn1 [Ex. 100, 4-[4-(4-Fluorophenyl)-2-isopropyl-1,3-thiazol-5-yl]-2-methylpyridine] | – | – | chromatographic logP (physchem; pH 2.7): 2.1; chromatographic logP (physchem; pH 7.8): 4.06
12 | CCc1nc(-c2ccc(Cl)s2)c(-c2ccncc2)s1 [compound 42] | 3.06^[b] | 3.88^[c]; | –
13 | CC(C)c1nc(-c2ccc(F)cc2)c(-c2ccncc2)s1 [compound 43] | 2.56^[b] | 3.71^[c]; | –
14 | Cc1nc(-c2ccc(F)cc2)c(-c2ccncc2)s1 [compound 44] | 1.48^[b] | – | –
15 | Fc1ccc(-c2nc(Cc3ccccc3)sc2-c2ccncc2)cc1 [compound 45] | 2.94^[b] | – | –
16 | CC(C)(C)c1nc(-c2ccc(F)cc2)c(-c2ccncc2)s1 [compound 46] | 3.29^[b] | – | –
17 | CCCCc1nc(-c2ccc(F)cc2)c(-c2ccncc2)s1 [compound 47] | 3.11^[b] | – | –
18 | CCc1nc(-c2ccc(C)c(C)c2)c(-c2ccncc2)s1 [compound 48] | 2.49^[b] | – | –
19 | CCc1nc(-c2cccc(C(F)(F)F)c2)c(-c2ccncc2)s1 [compound 49] | 3^[b] | – | –
20 | CCc1nc(-c2ccc(F)cc2)c(-c2ccnc(NC(=O)c3ccc(C)cc3)c2)s1 [compound 50] | 4.48^[b] | – | –
21 | CCc1nc(-c2ccc(F)cc2)c(-c2ccnc(NC(=O)C(C)(C)C)c2)s1 [compound 51] | 4.18^[b] | – | –
22 | CCc1nc(-c2ccc(F)cc2)c(-c2ccnc(NC(=O)c3ccc(F)cc3)c2)s1 [compound 52] | 4.18^[b] | – | –

Row | SMILES | log p (physchem; pH 2.7) | log p (physchem; pH 7.8) | other results
23 | CCc1nc(-c2ccc(F)cc2)c(-c2ccnc(NC(=O)c3ccc(OC)cc3)c2)s1 [compound 53] | 4.04^[b] | – | –
24 | CCc1nc(-c2ccc(F)cc2)c(-c2ccnc(NC(=O)C3CCCCC3)c2)s1 [compound 54] | 4.54^[b] | – | –
25 | CCc1nc(-c2ccc(F)cc2)c(-c2ccnc(NC(=O)CCc3ccccc3)c2)s1 [compound 55] | 4.23^[b] | – | –
26 | CCc1nc(-c2ccc(F)cc2)c(-c2ccnc(NC(=O)c3cccs3)c2)s1 [compound 56] | 3.92^[b] | – | –
27 | CCc1nc(-c2ccc(F)cc2)c(-c2ccnc(NC(=O)c3ccsc3)c2)s1 [compound 57] | 3.83^[b] | – | –
28 | CCc1nc(-c2ccc(F)cc2)c(-c2ccnc(Nc3ccccc3)c2)s1 [compound 60] | 3.1^[b] | – | –
29 | CCc1nc(-c2ccc(F)cc2)c(-c2ccnc(NC(C)c3ccccc3)c2)s1 (centres unmarked) [compound 61] | 2.39^[b] | – | –
30 | CCc1nc(-c2ccc(F)cc2)c(-c2ccnc(NCCc3ccccc3)c2)s1 [compound 62] | 2.17^[b] | – | –
31 | CCc1nc(-c2ccc(F)cc2)c(-c2ccnc(NC3CCCC3)c2)s1 [compound 63] | 1.94^[b] | – | –
32 | CCc1nc(-c2ccc(F)cc2)c(-c2ccnc(N3CCCC3)c2)s1 [compound 64] | 2^[b] | – | –
33 | CCc1nc(-c2ccc(F)cc2)c(-c2ccnc(NC(=O)OC(C)(C)C)c2)s1 [compound 65] | 4.63^[b] | – | –
34 | CCCCc1nc(-c2ccc(F)cc2)c(-c2ccnc(NC(=O)c3ccccc3)c2)s1 [compound 66] | 5.07^[b] | – | –
35 | CCc1nc(-c2ccc(F)cc2)c(-c2ccnc(N(C)C(=O)c3ccccc3)c2)s1 [compound 67] | 3.68^[b] | – | –
36 | CCc1nc(-c2ccc(F)cc2)c(-c2ccnc(N(C)C(C)=O)c2)s1 [compound 68] | 2.71^[b] | – | –
37 | CCc1nc(-c2ccccc2)c(-c2ccnc(NC(=O)c3ccccc3)c2)s1 [compound 69] | 3.91^[b] | – | –
38 | CCc1nc(-c2ccc(F)cc2)c(-c2ccnc(NC(C)COC)c2)s1 (centres unmarked) [compound 70] | 1.78^[b] | – | –
39 | CCc1nc(-c2ccc(F)cc2)c(-c2ccnc(NC(C)CO)c2)s1 (centres unmarked) [compound 71] | 1.44^[b] | – | –
40 | CCc1nc(-c2ccc(F)cc2)c(-c2ccnc(C(=O)N(C)CC)c2)s1 [compound 73] | 2.81^[b] | 2.87^[c]; | –
41 | C=CCNc1cc(-c2sc(CC)nc2-c2ccc(F)cc2)ccn1 [compound 74] | 1.67^[b] | 3.8^[c]; | –
42 | CCNc1cc(-c2sc(CC)nc2-c2ccc(F)cc2)ccn1 [compound 76] | 1.54^[b] | 3.64^[c]; | –
43 | CCc1nc(-c2ccc(F)cc2)c(-c2ccnc(NCC(C)O)c2)s1 (centres unmarked) [compound 77] | 1.44^[b] | 2.74^[c]; | –
44 | CCc1nc(-c2ccc(F)cc2)c(-c2ccnc(NCC(C)OC)c2)s1 (centres unmarked) [compound 78] | 1.73^[b] | 3.67^[c]; | –

Row | SMILES | log p (physchem; pH 2.7) | log p (physchem; pH 7.8) | other results
45 | CCc1nc(-c2ccc(F)cc2)c(-c2ccnc(NCC(F)F)c2)s1 [compound 79] | 2.39^[b] | 3.76^[c]; | –
46 | CCc1nc(-c2ccc(F)cc2)c(-c2ccnc(NC(=O)COC)c2)s1 [compound 81] | 3.17^[b] | 3.21^[c]; | –
47 | CCc1nc(-c2ccc(F)cc2)c(-c2ccnc(NC(=O)C(C)C)c2)s1 [compound 82] | 3.52^[b] | 3.66^[c]; | –
48 | CCc1nc(-c2ccc(F)cc2)c(-c2ccnc(NC(=O)C3CCC3)c2)s1 [compound 84] | 3.68^[b] | 3.82^[c]; | –
49 | CCOC(=O)Nc1cc(-c2sc(CC)nc2-c2ccc(F)cc2)ccn1 [compound 85] | 3.61^[b] | 3.69^[c]; | –
50 | CCc1nc(-c2ccc(F)cc2)c(-c2ccnc(NC(=O)C3CC3)c2)s1 [compound 86] | 3.22^[b] | 3.37^[c]; | –
51 | CCc1nc(-c2ccc(F)cc2)c(-c2ccnc(NC(=O)OC)c2)s1 [compound 87] | 3.14^[b] | 3.22^[c]; | –
52 | Fc1ccc(-c2nc(C(F)F)sc2-c2ccncc2)cc1 [compound 88] | 2.48^[b] | 3.01^[c]; | –
53 | Fc1ccc(-c2nc(C3CC3)sc2-c2ccncc2)cc1 [compound 89] | 2.16^[b] | 3.32^[c]; | –
54 | C=C(C)C(=O)Nc1cc(-c2sc(CC)nc2-c2ccc(F)cc2)ccn1 [compound 90] | 3.6^[b] | 3.71^[c]; | –
55 | CCc1nc(-c2ccc(F)cc2)c(-c2ccnc(NS(C)(=O)=O)c2)s1 [compound 91] | 2.36^[b] | 2.18^[c]; | –
56 | CCc1nc(-c2ccc(F)cc2)c(-c2ccnc(N(S(C)(=O)=O)S(C)(=O)=O)c2)s1 [compound 92] | 3.23^[b] | 3.24^[c]; | –
57 | CCc1nc(-c2ccc(F)cc2)c(-c2ccnc(N(C(=O)OC(C)C)C(=O)OC(C)C)c2)s1 [compound 93] | 4.5^[b] | 4.49^[c]; | –
58 | CCc1nc(-c2ccc(F)cc2)c(-c2ccnc(NC(=O)OC(C)C)c2)s1 [compound 94] | 4.08^[b] | 4.18^[c]; | –
59 | CCc1nc(-c2ccc(F)cc2)c(-c2ccnc(NC(=O)C3(C)CC3)c2)s1 [compound 95] | 3.89^[b] | 4.03^[c]; | –
60 | CCc1nc(-c2ccc(F)cc2)c(-c2ccnc(N(C(C)=O)C(C)=O)c2)s1 [compound 97] | 2.95^[b] | 2.95^[c]; | –
61 | CCc1nc(-c2ccc(F)cc2)c(-c2ccnc(NC(=O)CCl)c2)s1 [compound 98] | 3.29^[b] | 3.32^[c]; | –
62 | CCc1nc(-c2ccc(F)cc2)c(-c2ccnc(NC(=O)CC(C)C)c2)s1 [compound 99] | 3.91^[b] | 4.04^[c]; | –
63 | CCc1nc(-c2ccc(F)cc2)c(-c2ccnc(NC(C)C)c2)s1 [compound 101] | 1.73^[b] | 4.11^[c]; | –
64 | C#CCN(C(C)=O)c1cc(-c2sc(CC)nc2-c2ccc(F)cc2)ccn1 [compound 102] | 3.03^[b] | 3.02^[c]; | –
65 | CCc1nc(-c2cccs2)c(-c2ccncc2)s1 [compound 103] | 1.94^[b] | – | –
